“Also recorded” adds a separate entry of the source.

The results in this text go back to patent US8771682B2, “Methods and compositions for reducing interleukin-4 or interleukin-13 signaling” (Technische Universtität Dresden, priority 2011, dated 2014).

Holding throughout (format): cell-based, human
Assay [1] deals with type II IL-4 signaling (IL-4/IL-13, Stat6 phosphorylation). Briefly: Stat6 phosphorylation by quantitative immunoblotting in Stat6-transfected HEK293T cells stimulated with IL-4 or IL-13 (type II signaling). Particulars: IL-4 3 ng/ml or IL-13 10 ng/ml, Dynasore 320 μmol/l, EHT-1864 50 μmol/l, IPA-3 10 μmol/l, FIG. 9. The source says:
It was verified by RT-PCR that HEK293T (human epithelial cell line—ATCC number CRL-11268) cells expressed the endogenous type II IL-4 pathway components IL4-Ra, IL-13Ra1, Jak1, while Stat6 and the type I specific components IL-2Rg, and Jak3 were absent (FIG. 4 and FIG. 5). In HEK cells ectopically expressing human Stat6 under the cytomegalovirus promoter (pcDNA3.1-GS-Stat6, Gene Storm, Invitrogen) and stimulated with either IL-4 or IL-13, phosphorylated Stat6 became detectable by immunoblotting (FIG. 6). Co-transfected RNAi (Sigma Aldrich, #EHU-029151) mediated knockdown of the endogenous IL-13Ra1 subunit verified that this signaling activity was mediated by the type II receptor pathway (FIG. 7). Ectopically Stat6 is functional.
To test whether IL-4 signaling depends on compounds inhibiting Rac/Pak dependent endocytosis, HEK293T cells were transfected with a plasmid encoding human Stat6. Following transfection, cells were grown overnight, treated with inhibitors and/or ligands, lysed, proteins separated electrophoretically under denaturing conditions, and phosphorylation of Stat6 detected by quantitative immunoblotting (Antibodies from Santa Cruz, anti-STAT6 (M-20) #sc-981 and anti-phospho-STAT6 (py641.18, #sc-136019; FIG. 9).
If not indicated otherwise, human recombinant IL-4 (Invitrogen, #PHC0045) was used at 3 ng/ml, and human recombinant IL-13 (Cell Signaling, #8905) was used at 10 ng/ml.
If not indicated otherwise, the dynamin inhibitor Dynasore (Sigma Aldrich, #D7693) was used at 320 μmol/l, the Rac1 inhibitor EHT-1864 (Sigma Aldrich, 41E-1657) at 50 μmol/l, and the PAK inhibitor IPA-3 (Sigma Aldrich, #I-2285) at 10 μmol/l.
On the technique in general: A western blot detects proteins with antibodies after separation by electrophoresis.

For assay [2], the system named is endogenous type I signaling (IL-4R, Stat6 phosphorylation) in Jurkat T lymphocytic leukemia cell line. Briefly: pStat6 levels, endogenous type I IL-4 signaling in Jurkat cells. Particulars: 10 min pre-incubation with inhibitor plus 30 min ligand and inhibitor, chlorpromazine 2.8 μmol/l. On the procedure:
In a second series of experiments the inventors assayed the type I IL-4R. The pStat6 levels were determined under the following conditions: • without ligand stimulation • incubation with IL-4 ligand for 30 min • 10 min pre-incubation with inhibitor plus 30 min incubation with ligand and inhibitor • 40 min pre-incubation with inhibitor followed by removal of the inhibitor and 30 min incubation with ligand (washout).
To assay endogenous type I signaling was analyzed in the Jurkat T lymphocytic leukemia cell line (ATCC TIB 152) showing a specific sensitivity to Rac/Pak dependent endocytosis.

Assay [3] has as its system transferrin uptake in HEK cells expressing endogenous transferrin receptor. Briefly: Uptake of fluorescent transferrin (Alexa568-transferrin) by confocal fluorescence microscopy. Conditions: 25 μg/ml Alexa568-transferrin, compounds at working concentration (Dynasore 320 μmol/l), FIG. 14. On the procedure: The inventors verified that the used compounds at the working concentration indeed blocked endocytosis by monitoring the uptake of 25 μg/ml fluorescent transferrin (Alexa568-transferrin, Invitrogen) with confocal fluorescence microscopy (FIG. 14). The experiment was performed with (untransformed) HEK-cells expressing endogenous transferrin receptor. As expected, dynamin dependent endocytosis could be blocked with Dynasore. […] As expected, inhibiting Rac1 and Pak 1/2 dependent actin polymerization by EHT-1864 and IPA-3 had no effect on transferrin uptake (FIG. 14).

Assay [4] relates to loading of the signaling endosome with IL4-A647 in HEK293T transfected with IL-4Ra, IL-2Rg-eGFP and JAK3. Nature of the assay: Translocation of labeled IL-4 (IL4-A647) into signaling endosomes, co-localization with IL-2Rg-eGFP. The method, then:
The inventors created a fluorescently labeled IL-4 ligand (Alexa647—succinimidylester, Invitrogen)—further referred to as IL4-A647.
HEK293T were transfected with IL-4Ra, IL-2Rg-eGFP, and JAK3 as described above and cultured under standard culture conditions. The cells were incubated at 4° C. with the inhibitor (optional) and stained with 50 nmol/I IL4-A647 and washed with medium (DMEM without phenole red). The temperature release from 0° C. to 20° C. was defined as a reference point for the onset of endocytosis. Thenceforth, co-localization of eGFP with A647 was measured.
Applying the fluorescent IL-4-A647 under conditions in which endocytosis is suppressed (4° C.) allows to observe the kinetics of the translocation into the signaling endosomes. The endocytosis starts with a temperature release. FIG. 15 illustrates that in an initial state (timepoint 0 min, IL4-A647 channel) the plasma membrane of the IL-4Ra chain expressing cells is homogeneously stained. However, after several minutes, the A647 fluorescence a punctuated pattern appears in the IL4-A647 channel showing a high degree of colocalization to the GFP channel (FIG. 16). Association of the stained endosomes with the actin cortex and the plasma membrane is apparent in central confocal cross-sections through a central part of the cell (FIG. 17). […] Such a readout could therefore be used to detect IL-4 translocation inhibitors.

For the compound `O=c1cc(CN2CCOCC2)occ1OCCCCCSc1ccnc2cc(C(F)(F)F)ccc12` (racemic) [EHT-1864, 5-(5-(7-(Trifluoromethyl)quinolin-4-ylthio)pentyloxy)-2-(morpholinomethyl)-4H-pyran-4-one], the Stat6 phosphorylation level result in assay [1] is recorded as “reduced the Stat6 phosphorylation level”. Further, the “IL-4 signaling (pStat6 level)” value in assay [2] is “significantly reduced”. The transferrin uptake result in assay [3] was “no effect”. For the same compound, the “transport of the Alexa647-labeled ligand” value in assay [4] (50 μmol/l EHT-1864, bottom membrane, 21 min after temperature release, FIG. 18) was “reduced”. In addition, the “uptake of the labeled ligand” value in assay [4] (50 μmol/l EHT-1864, central cross-section, 22 min after temperature release, FIG. 19) is “reduced uptake”. Also, the “loading of the signaling endosome with IL4-A647” value in assay [4] (pre-incubation with 50 μmol/l EHT-1864, for up to 20 minutes after temperature release, FIG. 18) is “reduced significantly”.
As for `O=C(N/N=C/c1ccc(O)c(O)c1)c1cc2ccccc2cc1O` [Dynasore], in assay [1], the Stat6 phosphorylation level result was “reduced the Stat6 phosphorylation level; also recorded: prevented Stat6 phosphorylation”. For the same compound, in assay [2], the “IL-4 signaling (pStat6 level)” value was “significantly reduced”. Also, in assay [3], the transferrin uptake result was “blocked transferrin endocytosis; also recorded: inhibit transferrin uptake”.
For `Oc1ccc2ccccc2c1SSc1c(O)ccc2ccccc12` [IPA-3, 1,1′-Dithiodi-2-naphthtol], the Stat6 phosphorylation level result in assay [1] is listed as “reduced the Stat6 phosphorylation level”. In assay [2], the “IL-4 signaling (pStat6 level)” value is on record as “significantly reduced”. The transferrin uptake entry in assay [3] is reported as “no effect”.
On to `CN(C)CCCN1c2ccccc2Sc2ccc(Cl)cc21` [chlorpromazine], for which the “IL-4 signaling (pStat6 level)” value in assay [2] is on record as “no effect; also recorded: not IL-4 signaling”; in assay [2] (listed as Chlorpromazine) it was “no inhibitory effect”. Moreover, the transferrin uptake result in assay [3] is “blocked transferrin uptake”; in assay [3] (listed as Chlorpromazine) it was “inhibit transferrin uptake”.
